IC50 data for 25 compounds are collected here from US10927123B2, “Modulators of the beta-3 adrenergic receptor useful for the treatment or prevention of disorders related thereto” (Arena Pharmaceuticals, Inc., priority 2016, dated 2021).

One may read the IC50 as the point on the concentration scale where inhibition reaches its midpoint.

The target in this assay is Beta-3 Adrenergic Receptor (Homo sapiens (Human), UniProt P13945). As to the kind of experiment: HTRF cAMP antagonist assay (IC50 determination). Type of assay: cell-based. Conditions: CHO-K1 cells stably expressing recombinant receptor; antagonism of isoproterenol at EC90; cAMP readout. An outline of the steps: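 CHO-K1 cells stably expressing the recombinant receptor were preincubated with compound (10-point, 5-fold dilutions; top final typically 10 or 100 μM) in PBS with 1 mM IBMX, then stimulated with isoproterenol at its EC90 for 1 h at room temperature. cAMP was read by HTRF against an on-plate standard curve.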
On the technique in general: TR-FRET usually uses a lanthanide donor and a delayed reading to cut background.

Chain of Beta-3 Adrenergic Receptor (P13945 whole entry, species assumed): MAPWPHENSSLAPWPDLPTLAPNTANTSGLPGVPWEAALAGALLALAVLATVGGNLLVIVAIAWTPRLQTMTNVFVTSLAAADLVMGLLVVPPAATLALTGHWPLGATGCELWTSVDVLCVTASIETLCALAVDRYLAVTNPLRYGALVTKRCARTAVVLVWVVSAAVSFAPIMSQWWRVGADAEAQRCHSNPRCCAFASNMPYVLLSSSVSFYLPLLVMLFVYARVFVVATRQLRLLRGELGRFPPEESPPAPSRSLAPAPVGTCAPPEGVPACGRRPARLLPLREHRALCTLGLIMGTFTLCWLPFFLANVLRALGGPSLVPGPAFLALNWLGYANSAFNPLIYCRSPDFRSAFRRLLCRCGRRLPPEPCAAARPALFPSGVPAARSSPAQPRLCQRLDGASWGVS

As for `COCS(=O)(=O)c1cccc(OC[C@@H](O)CN[C@H]2COC3(CCN(S(=O)(=O)c4ccc5ncccc5c4)CC3)C2)c1` [Compound 131, (S)-1-(3-(methoxymethylsulfonyl)phenoxy)-3-((R)-8-(quinolin-6-ylsulfonyl)-1-oxa-8-azaspiro[4.5]decan-3-ylamino)propan-2-ol], the IC50 is 23.7 nM.
The result for `COCCCS(=O)(=O)c1cccc(OC[C@@H](O)CN[C@H]2COC3(CCN(S(=O)(=O)c4ccc5ncccc5c4)CC3)C2)c1` [Compound 132, (S)-1-(3-(3-methoxypropylsulfonyl)phenoxy)-3-((R)-8-(quinolin-6-ylsulfonyl)-1-oxa-8-azaspiro[4.5]decan-3-ylamino)propan-2-ol] reads 739 nM.
The result for `NC(=O)CCS(=O)(=O)c1cccc(OC[C@@H](O)CN[C@H]2COC3(CCN(S(=O)(=O)c4ccc5ncccc5c4)CC3)C2)c1` [Compound 133, 3-(3-((S)-2-hydroxy-3-((R)-8-(quinolin-6-ylsulfonyl)-1-oxa-8-azaspiro[4.5]decan-3-ylamino)propoxy)phenylsulfonyl)propanamide] reads 443 nM.
The result for `O=S(=O)(CCO)c1cccc(OC[C@@H](O)CN[C@H]2COC3(CCN(S(=O)(=O)c4cccc(-c5cccc(F)n5)c4)CC3)C2)c1` [Compound 134, (S)-1-((R)-8-(3-(6-fluoropyridin-2-yl)phenylsulfonyl)-1-oxa-8-azaspiro[4.5]decan-3-ylamino)-3-(3-(2-hydroxyethylsulfonyl)phenoxy)propan-2-ol] reads 55.1 nM; that for `O=S(=O)(CCCO)c1cccc(OC[C@@H](O)CN[C@H]2COC3(CCN(S(=O)(=O)c4cnc5ccccc5c4)CC3)C2)c1` [Compound 135, 3-(3-((S)-2-hydroxy-3-((R)-8-(quinolin-3-ylsulfonyl)-1-oxa-8-azaspiro[4.5]decan-3-ylamino)propoxy)phenylsulfonyl)propan-1-ol], 88.8 nM.
`O=S(=O)(c1cnc2ccccc2c1)N1CCC2(CC1)C[C@@H](NC[C@H](O)COc1cccc(S(=O)(=O)C3(CO)CC3)c1)CO2` [Compound 136, (S)-1-(3-(1-(hydroxymethyl)cyclopropylsulfonyl)phenoxy)-3-((R)-8-(quinolin-3-ylsulfonyl)-1-oxa-8-azaspiro[4.5]decan-3-ylamino)propan-2-ol]: the IC50 worked out at 18.8 nM.
As to `NC(=O)CS(=O)(=O)c1cccc(OC[C@@H](O)CN[C@H]2COC3(CCN(S(=O)(=O)c4ccc5ncccc5c4)CC3)C2)c1` [Compound 137, 2-(3-((S)-2-hydroxy-3-((R)-8-(quinolin-6-ylsulfonyl)-1-oxa-8-azaspiro[4.5]decan-3-ylamino)propoxy)phenylsulfonyl)acetamide], the IC50 stood at 350 nM.
The result for `O=S(=O)(c1cccc(OC[C@@H](O)CN[C@H]2COC3(CCN(S(=O)(=O)c4cnc5ccccc5c4)CC3)C2)c1)C1CCC1` [Compound 138, (S)-1-(3-(cyclobutylsulfonyl)phenoxy)-3-((R)-8-(quinolin-3-ylsulfonyl)-1-oxa-8-azaspiro[4.5]decan-3-ylamino)propan-2-ol] reads 20.4 nM; that for `CCCS(=O)(=O)c1cccc(OC[C@@H](O)CN[C@H]2COC3(CCN(S(=O)(=O)c4cnc5ccccc5c4)CC3)C2)c1` [Compound 139, (S)-1-(3-(propylsulfonyl)phenoxy)-3-((R)-8-(quinolin-3-ylsulfonyl)-1-oxa-8-azaspiro[4.5]decan-3-ylamino)propan-2-ol], 36.2 nM.
Take `O=S(=O)(CC1CC1)c1cccc(OC[C@@H](O)CN[C@H]2COC3(CCN(S(=O)(=O)c4cnc5ccccc5c4)CC3)C2)c1` [Compound 140, (S)-1-(3-(cyclopropylmethylsulfonyl)phenoxy)-3-((R)-8-(quinolin-3-ylsulfonyl)-1-oxa-8-azaspiro[4.5]decan-3-ylamino)propan-2-ol]: the half-maximal inhibitory concentration (IC50) came to 45.9 nM.
With `COCS(=O)(=O)c1cccc(OC[C@@H](O)CN[C@H]2COC3(CCN(S(=O)(=O)c4cnc5ccccc5c4)CC3)C2)c1` [Compound 141, (S)-1-(3-(methoxymethylsulfonyl)phenoxy)-3-((R)-8-(quinolin-3-ylsulfonyl)-1-oxa-8-azaspiro[4.5]decan-3-ylamino)propan-2-ol], the IC50 was found to be 11.6 nM.
As for `NC(=O)CCS(=O)(=O)c1cccc(OC[C@@H](O)CN[C@H]2COC3(CCN(S(=O)(=O)c4cnc5ccccc5c4)CC3)C2)c1` [Compound 142, 3-(3-((S)-2-hydroxy-3-((R)-8-(quinolin-3-ylsulfonyl)-1-oxa-8-azaspiro[4.5]decan-3-ylamino)propoxy)phenylsulfonyl)propanamide], the figure is 106 nM; as for `O=S(=O)(c1cccc(OC[C@@H](O)CN[C@H]2COC3(CCN(S(=O)(=O)c4ccc5ncccc5c4)CC3)C2)c1)C1CC1` [Compound 143, (S)-1-(3-(cyclopropylsulfonyl)phenoxy)-3-((R)-8-(quinolin-6-ylsulfonyl)-1-oxa-8-azaspiro[4.5]decan-3-ylamino)propan-2-ol], 13.2 nM; as for `O=S(=O)(c1cccc(OC[C@@H](O)CN[C@H]2COC3(CCN(S(=O)(=O)c4cnc5ccccc5c4)CC3)C2)c1)C1CC1` [Compound 144, (S)-1-(3-(cyclopropylsulfonyl)phenoxy)-3-((R)-8-(quinolin-3-ylsulfonyl)-1-oxa-8-azaspiro[4.5]decan-3-ylamino)propan-2-ol], 7.77 nM.
As for `CCOC(=O)C(C)(C)S(=O)(=O)c1cccc(OC[C@@H](O)CN[C@H]2COC3(CCN(S(=O)(=O)c4cnc5ccccc5c4)CC3)C2)c1` [Compound 145, ethyl 2-(3-((S)-2-hydroxy-3-((R)-8-(quinolin-3-ylsulfonyl)-1-oxa-8-azaspiro[4.5]decan-3-ylamino)propoxy)phenylsulfonyl)-2-methylpropanoate], the figure is 81.9 nM; as for `O=S(=O)(c1cccc(OC[C@@H](O)CN[C@H]2COC3(CCN(S(=O)(=O)c4cnc5ccccc5c4)CC3)C2)c1)C1CC(O)C1` (stereo partly drawn) [Compound 146, 3-(3-((S)-2-hydroxy-3-((R)-8-(quinolin-3-ylsulfonyl)-1-oxa-8-azaspiro[4.5]decan-3-ylamino)propoxy)phenylsulfonyl)cyclobutanol], 104 nM; as for `O=S(=O)(c1ccc2ncccc2c1)N1CCC2(CC1)C[C@@H](NC[C@H](O)COc1cccc(S(=O)(=O)C3(CO)CC3)c1)CO2` [Compound 147, (S)-1-(3-(1-(hydroxymethyl)cyclopropylsulfonyl)phenoxy)-3-((R)-8-(quinolin-6-ylsulfonyl)-1-oxa-8-azaspiro[4.5]decan-3-ylamino)propan-2-ol], 53.3 nM.
As for `O=S(=O)(c1ccc2ncccc2c1)N1CCC2(CC1)C[C@@H](NC[C@H](O)COc1cccc(S(=O)(=O)C(F)(F)CO)c1)CO2` [Compound 148, (S)-1-(3-(1,1-difluoro-2-hydroxyethylsulfonyl)phenoxy)-3-((R)-8-(quinolin-6-ylsulfonyl)-1-oxa-8-azaspiro[4.5]decan-3-ylamino)propan-2-ol], the figure is 21.8 nM.
For the compound `COCCCS(=O)(=O)c1cccc(OC[C@@H](O)CN[C@H]2COC3(CCN(S(=O)(=O)c4cnc5ccccc5c4)CC3)C2)c1` [Compound 149, (S)-1-(3-(3-methoxypropylsulfonyl)phenoxy)-3-((R)-8-(quinolin-3-ylsulfonyl)-1-oxa-8-azaspiro[4.5]decan-3-ylamino)propan-2-ol], the half-inhibitory concentration (IC50) worked out at 97.3 nM.
As for `CN1CCOc2ncc(S(=O)(=O)N3CCC4(CC3)C[C@@H](NC[C@H](O)COc3cccc(S(=O)(=O)CCCO)c3)CO4)cc21` [Compound 150, 3-(3-((S)-2-hydroxy-3-((R)-8-(1-methyl-2,3-dihydro-1H-pyrido[2,3-b][1,4]oxazin-7-ylsulfonyl)-1-oxa-8-azaspiro[4.5]decan-3-ylamino)propoxy)phenylsulfonyl)propan-1-ol], the figure is 227 nM; as for `CN1CCOc2ncc(S(=O)(=O)N3CCC4(CC3)C[C@@H](NC[C@H](O)COc3cccc(S(=O)(=O)CCO)c3)CO4)cc21` [Compound 151, (S)-1-(3-(2-hydroxyethylsulfonyl)phenoxy)-3-((R)-8-(1-methyl-2,3-dihydro-1H-pyrido[2,3-b][1,4]oxazin-7-ylsulfonyl)-1-oxa-8-azaspiro[4.5]decan-3-ylamino)propan-2-ol], 40.8 nM.
The result for `CN1CCOc2ncc(S(=O)(=O)N3CCC4(CC3)C[C@@H](NC[C@H](O)COc3cccc(S(C)(=O)=O)c3)CO4)cc21` [Compound 152, (S)-1-((R)-8-(1-methyl-2,3-dihydro-1H-pyrido[2,3-b][1,4]oxazin-7-ylsulfonyl)-1-oxa-8-azaspiro[4.5]decan-3-ylamino)-3-(3-(methylsulfonyl)phenoxy)propan-2-ol] reads 24.7 nM; that for `CC(C)S(=O)(=O)c1cccc(OC[C@@H](O)CN[C@H]2COC3(CCN(S(=O)(=O)c4cnc5c(c4)N(C)CCO5)CC3)C2)c1` [Compound 153, (S)-1-(3-(isopropylsulfonyl)phenoxy)-3-((R)-8-(1-methyl-2,3-dihydro-1H-pyrido[2,3-b][1,4]oxazin-7-ylsulfonyl)-1-oxa-8-azaspiro[4.5]decan-3-ylamino)propan-2-ol], 18.8 nM.
As for `CN1CCOc2ncc(S(=O)(=O)N3CCC4(CC3)C[C@@H](NC[C@H](O)COc3cccc(S(=O)(=O)C5(CO)CC5)c3)CO4)cc21` [Compound 155, (S)-1-(3-(1-(hydroxymethyl)cyclopropylsulfonyl)phenoxy)-3-((R)-8-(1-methyl-2,3-dihydro-1H-pyrido[2,3-b][1,4]oxazin-7-ylsulfonyl)-1-oxa-8-azaspiro[4.5]decan-3-ylamino)propan-2-ol], the figure is 48.2 nM; as for `CN1CCOc2ncc(S(=O)(=O)N3CCC4(CC3)C[C@@H](NC[C@H](O)COc3cccc(S(=O)(=O)C(F)(F)CO)c3)CO4)cc21` [Compound 156, (S)-1-(3-(1,1-difluoro-2-hydroxyethylsulfonyl)phenoxy)-3-((R)-8-(1-methyl-2,3-dihydro-1H-pyrido[2,3-b][1,4]oxazin-7-ylsulfonyl)-1-oxa-8-azaspiro[4.5]decan-3-ylamino)propan-2-ol], 24.8 nM.
